The values that follow come from patent publication US6005007A, “Retinoids, methods for their production and use” (priority 1997, dated 1999).

For assay [1], the target named is T1, RARα (Homo sapiens, UniProt P10276).
T1 sequence (P10276 1-462): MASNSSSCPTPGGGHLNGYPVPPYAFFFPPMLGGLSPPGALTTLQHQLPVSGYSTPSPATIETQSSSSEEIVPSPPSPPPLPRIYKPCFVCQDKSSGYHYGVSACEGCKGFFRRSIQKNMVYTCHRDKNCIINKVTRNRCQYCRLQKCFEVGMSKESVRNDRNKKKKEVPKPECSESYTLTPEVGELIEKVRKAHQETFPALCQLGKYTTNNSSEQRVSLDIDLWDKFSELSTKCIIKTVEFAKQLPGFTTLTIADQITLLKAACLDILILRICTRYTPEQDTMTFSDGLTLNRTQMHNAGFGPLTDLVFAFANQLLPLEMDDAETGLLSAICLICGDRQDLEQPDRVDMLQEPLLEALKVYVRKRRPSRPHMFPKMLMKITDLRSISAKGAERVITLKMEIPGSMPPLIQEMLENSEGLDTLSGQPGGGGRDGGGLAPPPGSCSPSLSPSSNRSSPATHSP
Put plainly: Receptor binding, RARα. The following applies: tritiated retinoid competition.

Assay [2] has as its target T2, RARβ (Homo sapiens, UniProt P10826).
T2 sequence (P10826 1-448 isoform P10826-2): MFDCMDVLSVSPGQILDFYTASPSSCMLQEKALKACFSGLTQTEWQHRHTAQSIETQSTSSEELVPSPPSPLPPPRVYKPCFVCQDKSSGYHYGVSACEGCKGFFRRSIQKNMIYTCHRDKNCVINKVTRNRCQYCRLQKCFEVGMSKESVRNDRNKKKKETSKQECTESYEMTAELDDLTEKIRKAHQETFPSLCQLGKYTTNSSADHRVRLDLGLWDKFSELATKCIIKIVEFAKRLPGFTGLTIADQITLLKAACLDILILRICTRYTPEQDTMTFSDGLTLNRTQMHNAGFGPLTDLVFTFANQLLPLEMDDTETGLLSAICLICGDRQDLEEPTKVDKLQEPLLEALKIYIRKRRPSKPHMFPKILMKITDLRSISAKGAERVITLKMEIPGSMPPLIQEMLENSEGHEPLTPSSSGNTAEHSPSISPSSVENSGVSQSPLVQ
Put plainly: Receptor binding, RARβ. The following applies: tritiated retinoid competition.

Assay [3] addresses T3, RARγ (Homo sapiens, UniProt P13631).
T3 sequence (P13631 1-454): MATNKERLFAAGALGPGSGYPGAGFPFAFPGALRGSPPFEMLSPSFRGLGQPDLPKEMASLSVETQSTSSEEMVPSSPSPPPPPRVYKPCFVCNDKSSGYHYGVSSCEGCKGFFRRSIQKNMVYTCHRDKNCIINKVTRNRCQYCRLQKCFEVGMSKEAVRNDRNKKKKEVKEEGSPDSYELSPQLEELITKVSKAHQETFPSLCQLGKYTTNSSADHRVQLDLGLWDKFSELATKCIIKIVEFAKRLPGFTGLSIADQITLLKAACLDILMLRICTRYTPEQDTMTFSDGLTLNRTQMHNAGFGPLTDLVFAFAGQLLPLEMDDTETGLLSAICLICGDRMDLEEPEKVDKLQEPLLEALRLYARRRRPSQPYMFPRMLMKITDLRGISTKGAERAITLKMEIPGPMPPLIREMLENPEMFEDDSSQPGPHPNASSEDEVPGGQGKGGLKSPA
Kind of assay: Receptor binding, RARγ. The following applies: tritiated retinoid competition.

A further assay has as its system AML-193. Kind of assay: Incorporation of 3H-thymidine, AML-193. The note with it: Homo sapiens, read-out: TdR IC50 AML-193 (nM).
The next assay relates to ME 180. Put plainly: Incorporation of 3H-thymidine, ME 180. The format is cell-based. The note with it: Homo sapiens.
The target in assay [4] is T3, RARγ. Kind of assay: Co-transfection assay, RARγ agonist activity. The assay is classed as cell-based. The arrangement: expressed in transfected cells; host or cells: CV-1 (African green monkey kidney fibroblasts). The following applies: CV-1 cells, luciferase reporter, read-out: RARγ Pot.
The target of assay [5] is T2, RARβ. Put plainly: Co-transfection assay, RARβ agonist activity. The arrangement: expressed in transfected cells; host or cells: CV-1 (African green monkey kidney fibroblasts). The assay is classed as cell-based. The note with it: CV-1 cells, luciferase reporter, read-out: RARβ Pot.
The target in a further assay is T4, RXRγ (Mus musculus, UniProt P28705).
T4 construct: expressed in transfected cells; host or cells: CV-1 (African green monkey kidney fibroblasts)
T4 sequence (P28705 1-463): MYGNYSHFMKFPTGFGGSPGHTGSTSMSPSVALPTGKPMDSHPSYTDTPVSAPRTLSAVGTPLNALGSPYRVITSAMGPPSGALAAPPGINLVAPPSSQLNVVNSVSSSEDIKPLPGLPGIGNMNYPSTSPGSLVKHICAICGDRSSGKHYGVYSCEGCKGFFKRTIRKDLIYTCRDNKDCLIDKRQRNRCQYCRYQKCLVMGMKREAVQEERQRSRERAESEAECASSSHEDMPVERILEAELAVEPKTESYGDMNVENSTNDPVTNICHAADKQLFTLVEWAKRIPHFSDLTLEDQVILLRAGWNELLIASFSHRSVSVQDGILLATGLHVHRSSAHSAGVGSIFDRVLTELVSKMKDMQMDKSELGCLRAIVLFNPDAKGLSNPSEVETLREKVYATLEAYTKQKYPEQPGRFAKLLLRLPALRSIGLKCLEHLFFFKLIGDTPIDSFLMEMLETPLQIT
Put plainly: Receptor binding, RXRγ. The following applies: tritiated retinoid competition.

For assay [6], the target named is T1, RARα. Put plainly: Co-transfection assay, RARα agonist activity. Details: expressed in transfected cells; host or cells: CV-1 (African green monkey kidney fibroblasts). The format is cell-based. The note with it: CV-1 cells, luciferase reporter, read-out: RARα Pot.
The test system of another assay is RPMI 8226. Kind of assay: Incorporation of 3H-thymidine, RPMI 8226. The following applies: Homo sapiens, 96 hours incubation, then 6 hours 3H-thymidine, read-out: TdR IC50 RPMI 8226. The assay is classed as cell-based.

SMILES strings stand for the structures. pEC50, pIC50, pKd: −log10 of the molar value. Where two headings read alike, the source gives them in different places.

On to `CC(/C=C/CC1(c2cc(C(C)(C)C)cc(C(C)(C)C)c2)CC1)=C\C(=O)O` [Compound 105, (2E, 4E)-6-[(3,5-di-t-butylphenyl)cyclopropan-1-yl]-3-methyl hexadienoic acid], for which the pKd at RARα [1], on RARβ [2] and at RARγ [3] was less than 5.30 in each case.

For the compound `CC1=C(/C=C/C(C)=C\C=C\C(C)=C\C(=O)O)C(C)(C)CCC1` [Compound 9-cis, 9-cis retinoic acid], the IC50 turned out to be 113 nM in the assay with AML-193 and 180 nM in the assay on ME 180 (ME-180, read-out: TdR IC50 ME 180 (nM)).

As for `CC(/C=C/CC1(c2cc3c(cc2C)C(C)(C)CCC3(C)C)CC1)=C\C(=O)O` [Compound 102, (2E, 4E)-6-[(3,5,5,8,8-Pentamethyl-5,6,7,8-tetrahydronaphthalen-2-yl)cyclopropan-1-yl]-3-methyl hexadienoic acid], the pKd at RARα [1] was less than 5.30; on RARβ [2], less than 5.30; on RARγ [3] it was less than 5.30; at RXRγ, 6.82. The pEC50 at RARγ [4], at RARβ [5] and on RARα [6] was less than 5.00 in each case.

For `C/C(=C\c1ccc(C(=O)O)cc1)c1ccc2c(c1)C(C)(C)CCC2(C)C` [TTNPB], the pIC50 in the assay on RPMI 8226 is 9.70; in the assay on ME 180 (ME-180, 96 hours incubation, then 6 hours 3H-thymidine, read-out: TdR IC50 ME 180), 9.40. Moreover, the IC50 in the assay on AML-193 turned out to be 0.1 nM.
